{
  "source": "ChEMBL document CHEMBL4819108",
  "about": "“A trio of quinoline-isoniazid-phthalimide with promising antiplasmodial potential: Synthesis, in-vitro evaluation and heme-polymerization inhibition studies” (Bioorg Med Chem, 2021)",
  "data": [
    {"test_system": "Plasmodium falciparum", "assay": "Antimalarial activity against Plasmodium falciparum RKL9 infected in human RBC assessed as reduction in parasite growth incubated for 24 hrs by giemsa staining based assay", "assay_type": "functional, organism-based", "conditions": "RKL9, Erythrocyte", "units": {"IC50": "nM"}, "values": [
      {"compound": "COc1ccc(/C=N/NC(=O)c2ccncc2)cc1O", "IC50": 40.2},
      {"compound": "O=C(N/N=C/C=C/c1ccccc1)c1ccncc1", "IC50": 66},
      {"compound": "O=C(N/N=C/c1ccc(O)cc1)c1ccncc1", "IC50": 42.2}
    ]},
    {"test_system": "Plasmodium falciparum", "assay": "Antimalarial activity against Plasmodium falciparum 7G8", "assay_type": "functional, organism-based", "conditions": "not given", "units": {"IC50": "nM"}, "values": [
      {"compound": "O=C(N/N=C/c1c(O)ccc2ccccc12)c1ccncc1", "IC50": 42.2}
    ]},
    {"test_system": "Heme", "assay": "Binding affinity to monomeric heme in MES buffer at pH 5.6", "conditions": "not given", "values": [
      {"compound": "O=C(NCCCCCCNc1ccnc2cc(Cl)ccc12)c1ccc2c(c1)C(=O)N(NC(=O)c1ccncc1)C2=O", "log K": 6.39}
    ]},
    {"test_system": "Heme", "assay": "Binding affinity to monomeric heme in HEPES buffer at pH 7.4", "conditions": "not given", "values": [
      {"compound": "O=C(NCCCCCCNc1ccnc2cc(Cl)ccc12)c1ccc2c(c1)C(=O)N(NC(=O)c1ccncc1)C2=O", "log K": 6.66}
    ]},
    {"test_system": "not listed separately", "assay": "Selectivity index, ratio of IC50 for African green monkey Vero cells to IC50 for antiplasmodial activity against CQ-resistant Plasmodium falciparum W2", "assay_type": "toxicity", "conditions": "read-out: Ratio IC50", "values": [
      {"compound": "O=C(NCCCCCCCCNc1ccnc2cc(Cl)ccc12)c1ccc2c(c1)C(=O)N(NC(=O)c1ccncc1)C2=O", "selectivity ratio": 1790},
      {"compound": "O=C(NCCCNc1ccnc2cc(Cl)ccc12)c1ccc2c(c1)C(=O)N(NC(=O)c1ccncc1)C2=O", "selectivity ratio": 366},
      {"compound": "O=C(NN1C(=O)c2ccc(C(=O)OCCNc3ccnc4cc(Cl)ccc34)cc2C1=O)c1ccncc1", "selectivity ratio": 239},
      {"compound": "O=C(NNC(=O)c1ccc2c(c1)C(=O)N(CCCNc1ccnc3cc(Cl)ccc13)C2=O)c1ccncc1", "selectivity ratio": 289},
      {"compound": "O=C(NNC(=O)c1ccc(N2C(=O)c3ccccc3C2=O)cc1)c1ccncc1", "selectivity ratio": 25.8},
      {"compound": "O=C(NN1C(=O)c2ccc(N3CCN(c4ccnc5cc(Cl)ccc45)CC3)cc2C1=O)c1ccncc1", "selectivity ratio": 338},
      {"compound": "O=C(NNC(=O)c1ccc2c(c1)C(=O)N(CCNc1ccnc3cc(Cl)ccc13)C2=O)c1ccncc1", "selectivity ratio": 138},
      {"compound": "O=C(O)c1ccc2c(c1)C(=O)N(CCNc1ccnc3cc(Cl)ccc13)C2=O", "selectivity ratio": 601},
      {"compound": "O=C(NNC(=O)c1ccc2c(c1)C(=O)N(CCCCCCCCNc1ccnc3cc(Cl)ccc13)C2=O)c1ccncc1", "selectivity ratio": 2970},
      {"compound": "O=C(NNC(=O)c1ccc2c(c1)C(=O)N(CCCCCCNc1ccnc3cc(Cl)ccc13)C2=O)c1ccncc1", "selectivity ratio": 12.7},
      {"compound": "O=C(O)c1ccc2c(c1)C(=O)N(CCCCCCCCNc1ccnc3cc(Cl)ccc13)C2=O", "selectivity ratio": 4820},
      {"compound": "O=C(NCCCCCCNc1ccnc2cc(Cl)ccc12)c1ccc2c(c1)C(=O)N(NC(=O)c1ccncc1)C2=O", "selectivity ratio": 2900},
      {"compound": "O=C(O)c1ccc2c(c1)C(=O)N(CCCCCCNc1ccnc3cc(Cl)ccc13)C2=O", "selectivity ratio": 805},
      {"compound": "O=C(NCCNc1ccnc2cc(Cl)ccc12)c1ccc2c(c1)C(=O)N(NC(=O)c1ccncc1)C2=O", "selectivity ratio": 144},
      {"compound": "O=C(O)c1ccc2c(c1)C(=O)N(CCCCNc1ccnc3cc(Cl)ccc13)C2=O", "selectivity ratio": 789},
      {"compound": "O=C(CN1C(=O)c2ccccc2C1=O)NNC(=O)c1ccncc1", "selectivity ratio": 30.8},
      {"compound": "O=C(NNC(=O)c1ccc2c(c1)C(=O)N(CCCCNc1ccnc3cc(Cl)ccc13)C2=O)c1ccncc1", "selectivity ratio": 627},
      {"compound": "O=C(NCCCCNc1ccnc2cc(Cl)ccc12)c1ccc2c(c1)C(=O)N(NC(=O)c1ccncc1)C2=O", "selectivity ratio": 58.1},
      {"compound": "O=C(NN1C(=O)c2ccc(C(=O)OCCCNc3ccnc4cc(Cl)ccc34)cc2C1=O)c1ccncc1", "selectivity ratio": 50},
      {"compound": "O=C(O)c1ccc2c(c1)C(=O)N(CCCNc1ccnc3cc(Cl)ccc13)C2=O", "selectivity ratio": 487}
    ]},
    {"test_system": "Vero", "assay": "Cytotoxicity against African green monkey Vero cells", "assay_type": "cell-based", "conditions": "Chlorocebus sabaeus", "units": {"IC50": "nM"}, "values": [
      {"compound": "O=C(NCCCCCCCCNc1ccnc2cc(Cl)ccc12)c1ccc2c(c1)C(=O)N(NC(=O)c1ccncc1)C2=O", "IC50": "> 167000"},
      {"compound": "O=C(NN1C(=O)c2ccc(C(=O)OCCNc3ccnc4cc(Cl)ccc34)cc2C1=O)c1ccncc1", "IC50": "> 194000"},
      {"compound": "O=C(NNC(=O)c1ccc(N2C(=O)c3ccccc3C2=O)cc1)c1ccncc1", "IC50": "> 259000"},
      {"compound": "O=C(NN1C(=O)c2ccc(N3CCN(c4ccnc5cc(Cl)ccc45)CC3)cc2C1=O)c1ccncc1", "IC50": "> 438000"},
      {"compound": "O=C(NNC(=O)c1ccc2c(c1)C(=O)N(CCNc1ccnc3cc(Cl)ccc13)C2=O)c1ccncc1", "IC50": "> 194000"},
      {"compound": "O=C(O)c1ccc2c(c1)C(=O)N(CCNc1ccnc3cc(Cl)ccc13)C2=O", "IC50": "> 253000"},
      {"compound": "O=C(O)c1ccc2c(c1)C(=O)N(CCCCCCCCNc1ccnc3cc(Cl)ccc13)C2=O", "IC50": "> 208000"},
      {"compound": "O=C(CN1C(=O)c2ccccc2C1=O)NNC(=O)c1ccncc1", "IC50": "> 308000"},
      {"compound": "O=C(NN1C(=O)c2ccc(C(=O)OCCCNc3ccnc4cc(Cl)ccc34)cc2C1=O)c1ccncc1", "IC50": "> 189000"}
    ]},
    {"test_system": "Plasmodium falciparum", "assay": "Antiplasmodial activity against CQ-resistant Plasmodium falciparum W2", "assay_type": "functional, organism-based", "conditions": "not given", "units": {"IC50": "nM"}, "values": [
      {"compound": "O=C(NCCCCCCCCNc1ccnc2cc(Cl)ccc12)c1ccc2c(c1)C(=O)N(NC(=O)c1ccncc1)C2=O", "IC50": 93.5},
      {"compound": "O=C(NCCCNc1ccnc2cc(Cl)ccc12)c1ccc2c(c1)C(=O)N(NC(=O)c1ccncc1)C2=O", "IC50": 439},
      {"compound": "O=C(NN1C(=O)c2ccc(C(=O)OCCNc3ccnc4cc(Cl)ccc34)cc2C1=O)c1ccncc1", "IC50": 812},
      {"compound": "O=C(NNC(=O)c1ccc2c(c1)C(=O)N(CCCNc1ccnc3cc(Cl)ccc13)C2=O)c1ccncc1", "IC50": 412},
      {"compound": "O=C(NNC(=O)c1ccc(N2C(=O)c3ccccc3C2=O)cc1)c1ccncc1", "IC50": "> 10000"},
      {"compound": "O=C(NN1C(=O)c2ccc(N3CCN(c4ccnc5cc(Cl)ccc45)CC3)cc2C1=O)c1ccncc1", "IC50": 1300},
      {"compound": "O=C(NNC(=O)c1ccc2c(c1)C(=O)N(CCNc1ccnc3cc(Cl)ccc13)C2=O)c1ccncc1", "IC50": 1400},
      {"compound": "O=C(O)c1ccc2c(c1)C(=O)N(CCNc1ccnc3cc(Cl)ccc13)C2=O", "IC50": 424},
      {"compound": "O=C(NNC(=O)c1ccc2c(c1)C(=O)N(CCCCCCCCNc1ccnc3cc(Cl)ccc13)C2=O)c1ccncc1", "IC50": 43.3},
      {"compound": "O=C(NNC(=O)c1ccc2c(c1)C(=O)N(CCCCCCNc1ccnc3cc(Cl)ccc13)C2=O)c1ccncc1", "IC50": "> 10000"},
      {"compound": "O=C(O)c1ccc2c(c1)C(=O)N(CCCCCCCCNc1ccnc3cc(Cl)ccc13)C2=O", "IC50": 43.2},
      {"compound": "O=C(NCCCCCCNc1ccnc2cc(Cl)ccc12)c1ccc2c(c1)C(=O)N(NC(=O)c1ccncc1)C2=O", "IC50": 11.5},
      {"compound": "O=C(O)c1ccc2c(c1)C(=O)N(CCCCCCNc1ccnc3cc(Cl)ccc13)C2=O", "IC50": 30.2},
      {"compound": "O=C(NCCNc1ccnc2cc(Cl)ccc12)c1ccc2c(c1)C(=O)N(NC(=O)c1ccncc1)C2=O", "IC50": 445},
      {"compound": "O=C(O)c1ccc2c(c1)C(=O)N(CCCCNc1ccnc3cc(Cl)ccc13)C2=O", "IC50": 50.8},
      {"compound": "O=C(CN1C(=O)c2ccccc2C1=O)NNC(=O)c1ccncc1", "IC50": "> 10000"},
      {"compound": "O=C(NNC(=O)c1ccc2c(c1)C(=O)N(CCCCNc1ccnc3cc(Cl)ccc13)C2=O)c1ccncc1", "IC50": 26.3},
      {"compound": "O=C(NCCCCNc1ccnc2cc(Cl)ccc12)c1ccc2c(c1)C(=O)N(NC(=O)c1ccncc1)C2=O", "IC50": 253},
      {"compound": "O=C(NN1C(=O)c2ccc(C(=O)OCCCNc3ccnc4cc(Cl)ccc34)cc2C1=O)c1ccncc1", "IC50": 3770},
      {"compound": "O=C(O)c1ccc2c(c1)C(=O)N(CCCNc1ccnc3cc(Cl)ccc13)C2=O", "IC50": 496}
    ]}
  ]
}
